# Reference: article PMC9298186, “Thiamine analogues as inhibitors of pyruvate dehydrogenase and discovery of a thiamine analogue with non-thiamine related antiplasmodial activity” (RSC Medicinal Chemistry, 2022)
# Read-outs that look alike come from different tables or passages of the source.
# Experiments:
# [1] = test system: P. falciparum 3D7 (chloroquine-sensitive) strain; test: In vitro antiplasmodial activity assay (SYBR-Safe; malstat for 15); format: cell-based, Plasmodium falciparum; conditions: for IC50: Plasmodium falciparum; for Effect of changing folic acid concentration on parasite sensitivity: […] versus 220 μM folic acid in medium
# porcine PDHc E1 [2] = target: T1, porcine PDHc E1 (Sus scrofa, UniProt F1SGH5+P29804); test: Porcine PDHc-E1 inhibition, DCPIP reduction assay; format: biochemical; conditions: for inhibition at 50 µM: read-out: Inhibition (%) of PDH E1; for inhibition at 100 µM: read-out: Inhibition (%) of PDH E1 at [TPP] = 100 μM
# T1 sequence (P29804 31-390): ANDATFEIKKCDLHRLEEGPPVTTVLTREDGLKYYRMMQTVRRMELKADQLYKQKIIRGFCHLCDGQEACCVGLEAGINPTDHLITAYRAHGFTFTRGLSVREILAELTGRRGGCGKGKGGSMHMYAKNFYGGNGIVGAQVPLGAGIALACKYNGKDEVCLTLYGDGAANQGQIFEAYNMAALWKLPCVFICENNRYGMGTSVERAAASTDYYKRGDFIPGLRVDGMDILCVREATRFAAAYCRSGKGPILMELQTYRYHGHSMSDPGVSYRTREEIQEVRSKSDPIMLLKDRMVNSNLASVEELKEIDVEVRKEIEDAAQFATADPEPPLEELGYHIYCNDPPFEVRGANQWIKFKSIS
# T1 sequence (F1SGH5 32-360): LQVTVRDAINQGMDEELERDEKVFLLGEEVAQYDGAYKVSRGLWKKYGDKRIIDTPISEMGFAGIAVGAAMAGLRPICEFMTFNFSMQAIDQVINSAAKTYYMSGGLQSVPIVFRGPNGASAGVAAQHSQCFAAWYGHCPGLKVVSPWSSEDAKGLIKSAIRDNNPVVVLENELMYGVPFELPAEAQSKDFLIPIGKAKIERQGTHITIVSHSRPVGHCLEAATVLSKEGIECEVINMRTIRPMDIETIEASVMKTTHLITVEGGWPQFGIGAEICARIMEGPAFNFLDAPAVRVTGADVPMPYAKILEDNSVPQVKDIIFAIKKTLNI
# [3] = test system: Zymomonas mobilis pyruvate decarboxylase (zmPDC); parameters: method as in PMID 19082157; conditions: cited from earlier work
# [4] = test system: human foreskin fibroblast (HFF) cells; format: cell-based; conditions: for Selectivity index: HFF cytotoxicity versus antiplasmodial IC50; for Cytotoxicity: human, 96 h
# Procedure: Cytotoxicity evaluation of selected compounds
# Cytotoxicity testing of selected compounds was conducted using HFF cells (human foreskin fibroblasts) as described by Howieson et al. with some modifications.10 Briefly, the HFF cells were seeded in 96- […]
# Cycloheximide (10 µM; a protein synthesis inhibitor) was used as a control to indicate complete inhibition of HFF cell proliferation. Plates were […]
# A sample of the supernatant
# (150 µL) was then carefully aspirated from each well and discarded. The plates were then stored at - 80 °C. SYBR-Safe assay was used to measure cell proliferation. Briefly, the plates were thawed, SYBR-Safe lysis solution (150 µL) was added to each well and mixed via pipetting to ensure the HFF cells were detached from the plate and lysed. The plates were then processed as described for the […]
# Fig. S7. […] Data are averaged […]
# from three independent experiments, each carried out in triplicate. Error bars represent SEM and, where not visible, are smaller than the symbols. […]
# 10Howieson, V.M.; Tran, E.; Hoegl, A.; Fam, H.L.; Fu, J.; Sivonen, K.; Li, X.X.; Auclair, K.; Saliba, K.J. Triazole substitution of a labile amide bond […]
# [5] = test system: P. falciparum 3D7 parasites expressing PfTPK-GFP; test: Antiplasmodial activity against parasites overexpressing PfTPK-GFP; format: cell-based, Plasmodium falciparum; conditions: versus mock and wild-type parasites; presence or absence of thiamine (2.97 μM)
# P. falciparum = test system: P. falciparum; parameters: method as in earlier work; conditions: ChEMBL; read-out: IC50 against P. falciparum; cited from earlier work
# porcine PDHc E1 [6] = target: T1, porcine PDHc E1; test: Porcine PDHc-E1 inhibition, DCPIP reduction assay; format: biochemical; conditions: for IC50: [TPP] = 10 μM, mean ± SEM, read-out: IC50 PDH E1; for Ki: read-out: Ki PDH E1
# [7] = target: pig heart pyruvate dehydrogenase; parameters: method as in PMID 183746; conditions: read-out: KD for TPP in pig heart pyruvate dehydrogenase; cited from earlier work
# [8] = 3D7, medium with 2.97 μM thiamine, ± SEM, read-out: Antiplasmodial IC50, 2.97 μM thiamine
# [9] = 3D7, medium with 297 μM thiamine, ± SEM, read-out: Antiplasmodial IC50, 297 μM thiamine
# [10] = 3D7, thiamine-free medium, ± SEM, three independent experiments, read-out: Antiplasmodial IC50, thiamine free
# [11] = 3D7, read-out: Antiplasmodial IC50, 2.97 μM thiamine
# [12] = 3D7, read-out: Antiplasmodial IC50, 297 μM thiamine
# [13] = 3D7, read-out: Antiplasmodial IC50, thiamine free
Compound,"IC50 [1, 8] [µM]","IC50 [1, 9] [µM]","IC50 [1, 10] [µM]",inhibition at 50 µM (porcine PDHc E1 [2]) [%],inhibition at 100 µM (porcine PDHc E1 [2]) [%],other results
Cc1ncc(Cn2cc(CCOc3ccc([N+](=O)[O-])cc3)nn2)c(N)n1 [Compound 13a],> 200,> 200,168 ± 26,75 ± 3,53 ± 4,–
Cc1ncc(Cn2cc(CCOC(=O)c3ccc(Cl)cc3)nn2)c(N)n1 [Compound 12b],–,–,–,81 ± 2,56 ± 3,"IC50 [1, 11]: 125 ± 22 µM; IC50 [1, 12]: 122 ± 6 µM; IC50 [1, 13]: 107 ± 16 µM"
"Cc1ncc(Cn2cc(CCO)nn2)c(N)n1 [Compound 6, reference compound]",–,–,–,60 ± 7,35 ± 6,"Binding to zmPDC, times weaker than TPP [3]: about 1000 times"
"COc1ncnc(NS(=O)(=O)c2ccc(N)cc2)c1OC [sulfadoxine, reference compound]",–,–,–,–,–,Effect of changing folic acid concentration on parasite sensitivity [1]: diminished
Cc1ncc(Cn2cc(CCOC(=O)c3cccc(Cl)c3)nn2)c(N)n1 [Compound 12c],62 ± 17,79 ± 5,63 ± 15,72 ± 3,48 ± 3,Selectivity index [4]: >3.2; Cytotoxicity [4]: >200 µM; Effect of PfTPK overexpression on parasite sensitivity [5]: no effect
Cc1ncc(Cn2cc(CCOC(=O)c3ccccc3Cl)nn2)c(N)n1 [Compound 12d],347 ± 20,343 ± 33,339 ± 31,61 ± 3,38 ± 3,melting point: 184 to 185 °C
C=CCc1cnc(C)nc1NCc1ccccc1 [Compound 16],–,–,–,–,–,IC50 (P. falciparum): 18.5 µM
Cc1ncc(Cn2cc(CCOC(=O)c3ccccc3)nn2)c(N)n1 [Compound 12a],–,–,–,72 ± 3,44 ± 4,"IC50 (porcine PDHc E1 [6]): 20 ± 3 µM; Ki (porcine PDHc E1 [6]): 0.1 ± 0.015 µM; IC50 [1, 11]: 136 ± 18 µM; IC50 [1, 12]: > 200 µM; IC50 [1, 13]: 128 ± 13 µM; Cytotoxicity [4]: >200 µM; Effect of PfTPK overexpression on parasite sensitivity [5]: no effect"
"Cc1ncc(C[n+]2csc(CCO)c2C)c(O)n1 [oxythiamine, reference compound]",–,–,–,–,–,Effect of PfTPK overexpression on parasite sensitivity [5]: increased the sensitivity
Cc1ncc(Cn2cc(CCOC(=O)c3ccc(Br)cc3)nn2)c(N)n1 [Compound 12e],85 ± 4,82 ± 8,75 ± 6,73 ± 2,46 ± 5,–
"Cc1ncc(C[n+]2csc(CCO[P@](=O)(O)OP(=O)(O)O)c2C)c(N)n1 [TPP, thiamine pyrophosphate]",–,–,–,–,–,"Kd ([3]; read-out: KD of TPP, zmPDC): ~0.35 µM; Kd [7]: 0.05 ± 0.01 µM"
Cc1ncc(Cn2cc(CCOC(=O)c3ccc([N+](=O)[O-])cc3)nn2)c(N)n1 [Compound 12f],> 25,> 25,> 25,55 ± 5,40 ± 8,–
Cc1ncc(Cn2cc(CCOC(=O)c3cccc([N+](=O)[O-])c3)nn2)c(N)n1 [Compound 12g],–,–,–,56 ± 5,38 ± 5,"IC50 (porcine PDHc E1 [6]): 36 ± 4 µM; Ki (porcine PDHc E1 [6]): 0.182 ± 0.02 µM; IC50 [1, 11]: 139 ± 9 µM; IC50 [1, 12]: 143 ± 10 µM; IC50 [1, 13]: 135 ± 15 µM; melting point: 188 to 189 °C"
Cc1ncc(Cn2cc(CCO)nn2)c(NCc2ccc(Br)cc2)n1 [Compound 15],2.3 ± 0.1,2.7 ± 0.01,2.2 ± 0.2,0,–,"Inhibitory activity against porcine PDHc E1 (porcine PDHc E1 [6]): none; IC50 ([1]; 3D7, read-out: Antiplasmodial IC50 (text, thiamine concentration not specified)): ~2 µM; Effect of changing folic acid concentration on parasite sensitivity [1]: no difference; Selectivity index [4]: 45; Cytotoxicity [4]: 98 ± 7 µM; Effect of PfTPK overexpression on parasite sensitivity [5]: no effect"
Cc1ncc(Cn2cc(CCOP(=O)(O)OP(=O)(O)O)nn2)c(N)n1 [Compound 7],–,–,–,–,–,"Binding to zmPDC, times tighter than TPP [3]: about 10 000 times"
